From patent US20250243174A1, “ANTITUMORAL COMPOUNDS” (PHARMA MAR, S.A., priority 2021, published 2025)
Like-named read-outs stand apart in the source and are kept apart here.

Legend:
MDA-MB-231 = experiment: SRB colorimetric cytotoxicity assay, MDA-MB-231; type: cell-based; conditions: Homo sapiens, read-out: GI50 (M) MDA-MB-231
Excerpt: The aim of this assay is to evaluate the in vitro cytostatic (ability to delay or arrest tumor cell growth) or cytotoxic (ability to kill tumor cells) activity of the samples being tested.
A colorimetric assay, using sulforhodamine B (SRB) reaction has been adapted to provide a quantitative measurement of cell growth and viability (using the technique developed by Skehan et al., J. Natl. Cancer Inst. 1990 and following the protocol detailed in V. Vichai and K. Kirtikara (2006) Nature Protoc. 1, 1112-1116.)
This form of assay employs 96-well cell culture microplates. All the cell lines used in this study were obtained from the American Type Culture Collection (ATCC), unless otherwise indicated, and derive from different types of human cancer.
Cells were maintained in Dulbecco's Modified Eagle Medium (DMEM) (for A549, HT-29 and MDA-MB-231) or RPMI (for PSN-1) supplemented with 10% Fetal Bovine Serum (FBS), 2 mM L-glutamine, 100 U/mL penicillin and 100 U/mL streptomycin at 37° C., 5% CO2 and 98% humidity. For the experiments, cells were harvested from subconfluent cultures using trypsinization and resuspended in fresh medium before counting and plating.
Cells were seeded in 96 well microtiter plates, at 5×10^3 cells per well in aliquots of 150 μL, and allowed to attach to the plate surface for 18 hours (overnight) in drug free medium. After that, one control (untreated) plate of each cell line was fixed (as described below) and used for time zero reference value. Culture plates were then treated with test compounds (50 μL aliquots of 4× concentrated compound stock solutions made in complete culture medium) using ten serial dilutions (concentrations ranging from […]) and triplicate cultures (final concentration of DMSO being 1%). After 72 hours treatment, the antitumor effect was measured by using the SRB methodology: Briefly, cells were washed twice with PBS, fixed for 15 min in 1% glutaraldehyde solution at room temperature, rinsed twice in PBS, and stained in 0.4% SRB solution for 30 min at room temperature. Cells were then rinsed several times with 1% acetic acid solution and air-dried at room temperature. SRB was then extracted in 10 mM trizma base solution and the absorbance measured in an automated spectrophotometric plate reader at 490 nm. Effects on cell growth and survival were estimated by applying the NCI algorithm (Boyd M R and Paull K D. Drug Dev. Res. 1995, 34, 91-104).
Using the mean±SD of triplicates, a dose-response curve was automatically generated using nonlinear regression analysis to a 4-parameter logistic curve. Three reference parameters were calculated (NCI algorithm) by automatic interpolation: GI50=compound concentration that produces […] cell growth inhibition, as compared to control cultures.

HCT-116 xenografts = experiment: Example 7, colon xenograft model HCT-116; type: in vivo; conditions: for TV, median (IQR) / Median survival time: iv Q7dx3; for TV, median (IQR): high dose: PM060184 16, Comp. 2 2, Comp. 3 1 mg/kg; for mean time with tumor remission: high dose: compound 2 2.0, compound 3 1.0, PM060184 16 mg/kg; for animals in complete tumor remission: highest dose: compound 2 2.0, compound 3 1.0 mg/kg; for antitumor activity compared to PM060184-treated group at 16 mg/kg: once treatments were finalized (days 21 to 35), 2 at 2 mg/kg, 3 at 1 mg/kg; for mean body weight reduction: recorded on Day 9, compound 2 2.0 mg/kg, compound 3 1.0 mg/kg
Method: Female athymic nu/nu mice (Harlan Laboratories Models, S.L. Barcelona, Spain or Envigo, Spain) were utilized for all experiments. Animal were housed in individually ventilated cages Sealsafe® Plus, Techniplast S.P.A.), up to ten per cage on a 12-hour light-dark cycle at 21-23° C. and 40-60% humidity. Mice were allowed free access to irradiated standard rodent diet (Tecklad 2914C) and sterilized water. Animals were acclimated for at least 5 days prior to tumor implantation with a tumor cell suspension.
HCT116 cells were maintained in vitro at 37° C., 5% Co2 in McCoy's 5A Medium (Sigma Aldrich, Co.). Culture cells were passage every 3 to 5 days on reaching confluence. Each animal was subcutaneously implanted (on the right flank using 26G needle and a 1 cc syringe) at 4-6 weeks of age with 5×10^6 HCT116 cells suspended in 0.05 mL of a solution consisting of 50% Matrigel® (Corning Incorporated Life Sciences) and 50% medium without serum or antibiotics.
All treatments were intravenously administered on a weekly basis at their MTD, ¼ MTD and 1/16 MTD (high, medium and low dose).
Briefly: • 4 to 6 week-old athymic nu/nu female mice were subcutaneously implanted with tumor cells growing in culture. • When tumors reached a certain volume, tumor bearing animals (N=8-10/group) were randomly allocated into treatment groups. • Tumor dimensions and body weights were recorded 2-3 times per week starting from the first day of treatment (Day 0). Treatments producing >20% lethality and/or 20% net body weight loss were considered toxic. Tumor volume was calculated using the equation (a·b^2)/2, where a and b were the longest and shortest diameters, respectively. Animals were euthanized when their tumors reached ca. 2,000 mm^3 and/or severe necrosis was seen. • Median was calculated for tumor volume on each measurement day. • Antitumor effect was assessed comparing tumor volume data from groups following the 1st, 2nd, 3rd study weeks, or more depending on the case, using a two-tailed Mann-Whitney U test. The data are presented as medians and interquartile range (IQR). • Complete tumor regression (CR) was defined when tumor volume<63 mm^3 for 2 or more consecutive measurements. • Treatment tolerability was assessed by monitoring body weight evolution, clinical signs of systemic toxicity as well as evidences of local damage at the injection site.
PM060184 was provided in the form of freeze-dried vials of lyophilized product. Each vial was reconstituted with water for infusion to a concentration of 2.5 mg/mL.
Compounds 2 and 3 were provided in the powder form and were solubilized with hydroxy-propyl-β-cyclodextrin (HPβCD), reaching a concentration of 1 mg/ml or 0.2 mg/ml, respectively. Placebo was provided in the form of lyophilised cake containing 1.2 g of hydroxy-propyl-β-cyclodextrin (HPβCD) which was reconstituted with water for infusion.
In these experiments, compounds 2, 3 and PM060184, as well as placebo, were intravenously administered once per week for 3 consecutive weeks, on Days 0, 7 and 14, whenever it was possible.
The experiment was carried out as previously explained. When tumors reached ca. 195-205 mm^3, tumor bearing animals (N=10/group) were randomly allocated into the following treatment groups:
Treatments were initiated on Day 0.

[1] = high dose: PM060184 16.0, Comp. 2 2.0, Comp. 3 1.0 mg/kg, ud = group not reached mortality
[2] = low dose: PM060184 1.0, Comp. 2 0.125, Comp. 3 0.0625 mg/kg
[3] = medium dose: PM060184 4.0, Comp. 2 0.5, Comp. 3 0.25 mg/kg
[4] = medium-dose: compound 2 0.5, compound 3 0.25 mg/kg

SMILES	GI50 (MDA-MB-231; MDA-MB-231, 72 h) [M]	TV, median (IQR) (HCT-116 xenografts; Day 7)	TV, median (IQR) (HCT-116 xenografts; Day 14)	TV, median (IQR) (HCT-116 xenografts; Day 21)	TV, median (IQR) (HCT-116 xenografts; Day 28)	TV, median (IQR) (HCT-116 xenografts; Day 35)	Median survival time (HCT-116 xenografts; [1])	mean time with tumor remission (HCT-116 xenografts) [days]	animals in complete tumor remission (HCT-116 xenografts) [%]	Median survival time (HCT-116 xenografts; [2]) [days]	Median survival time (HCT-116 xenografts; [3]) [days]	animals that reached a complete remission (n/10) (HCT-116 xenografts; [4])	complete remission lasted a mean of (HCT-116 xenografts; [4]) [days]	antitumor activity compared to PM060184-treated group at 16 mg/kg (HCT-116 xenografts)	mean body weight reduction (HCT-116 xenografts)	GI50 (MDA-MB-231; MDA-MB-231, 72 hours treatment, SRB) [M]	animals that reached a complete remission (n/10) (HCT-116 xenografts; high-dose: PM060184 16 mg/kg)	body weight decrease (HCT-116 xenografts; recorded on Day 2, PM060184 16 mg/kg)
COC1=CC[C@@H]([C@@H](C)/C=C(C)/C=C\C=C/C(=O)N[C@H](C(=O)N/C=C\C[C@H](C/C=C(\C)F)OC(N)=O)C(C)(C)C)OC1=O [Compound 2]	4.87e-11	135.5 (114.1-154.5) mm3	57.2 (47.1-62.9) mm3	25.0 (13.5-34.0) mm3	13.5 (13.5-32.0) mm3	13.5 (13.5-13.5) mm3	ud	25.8	100	19	58	4/10	9	big difference, in terms of antitumor activity, statistically significant	ca. −13.5%	–	–	–
COC1=CC[C@@H]([C@@H](C)/C=C(C)/C=C\C=C/C(=O)N[C@H](C(=O)N/C=C\C[C@H](CC=C(C)C)OC(N)=O)C(C)(C)C)OC1=O [Compound 3]	9.05e-11	121.6 (86.3-164.8) mm3	55.6 (16.2-82.3) mm3	32.0 (4.0-40.0) mm3	13.5 (4.0-13.5) mm3	13.5 (13.5-13.5) mm3	ud	23.7	100	14	49	1/10	2	big difference, in terms of antitumor activity, statistically significant	ca. −16.2%	–	–	–
C/C=C\C[C@@H](C/C=C\NC(=O)[C@@H](NC(=O)\C=C/C=C\C(C)=C\[C@H](C)[C@@H]1CC=C(OC)C(=O)O1)C(C)(C)C)OC(N)=O [PM060184, reference compound]	–	140.5 (123.0-157.3) mm3	59.2 (50.7-84.2) mm3	63.8 (43.6-80.0) mm3	265.7 (195.2-284.3) mm3	650.2 (516.7-732.6) mm3	47 days	5.8	–	19	43	–	–	–	–	2.07e-10	6/10	ca. −3.2%
